The values below are quoted from earlier work in patent publication US7368441B2, “Method of increasing intracellular concentrations of phosphate and increasing the force of muscular contractions” (Aplodan Formulations Ltd., priority 2006, dated 2008).

Molecules are shown by their SMILES. Like-named read-outs stand apart in the source and are kept apart here.

For series [1] the following is noted: in vivo.
For series [2] the following is noted: patients with inadequate coronary blood flow.
For series [3] the following is noted: administration in humans.
For series [4] the following is noted: oral administration, test animals, at 48 hours.
The conditions of series [5]: alkaline and acidic solutions.
For series [6] the following is noted: in vitro.
The conditions of series [7]: clinical trials.
For series [8] the following is noted: unaffected in placebo group.
The conditions of series [9]: elderly subjects.

As to `CN(CCOP(=O)(O)O)C(=N)N` [2-(carbamimidoyl-methyl-amino)ethoxyphosphonic acid], the “tolerability / side effects” value in [1] is “well tolerated and without side effects”. The cardiac parameters entry in series [2] is listed as “improve cardiac parameters”. Also, the “urine levels of creatinine” value in series [3] is “increases urine levels of creatinine”. Besides, in series [4], the “absorption by the intestine” value is on record as “about 60%”. For the same compound, the stability in solution entry in series [5] was “stable in both alkaline and acidic solutions”. Also, the dephosphorylation to creatine entry in [6] (blood and muscle) was “less so”; in [6] (kidney, intestine and liver), “dephosphorylated to creatine to some degree”. Also, in [7], the “muscle development and capacity to perform physical activity” value was “improve muscle development and increase the capacity to perform physical activity”. The hand strength entry in [8] is “improved”. Also, the muscular performance result in series [9] was “improved muscular performance”. Also, for the setting “Guinea-Pig, intravenous, intramuscular and oral administration”, the “14C radio-labeled compound found in skeletal muscle” value is reported as “Significant amounts”. Further, the “duration of more constant level in the body following administration” value (oral administration) is given as “about 15 hours”. Further, the “time after which level in the body begins to decrease” value (oral administration) was 33 h.
